# From patent US4465676A, “16α Halogen substituted 3,17β-dihydroxy steroidal estrogens” (priority 1980, dated 1984)
# How the values were obtained:
# [1] = test system: testosterone-estradiol binding globulin; assay: Binding to testosterone-estradiol binding globulin of human plasma
# Excerpt: This protein contaminates most human tissue preparations, complicating the detection of sex steroid receptors.
# [2] = Stability of the radiolabelled compound on storage; assay type: physicochemical
# Protocol: In several experiments the yield of ^125 I-labeled estradiol ranged from 25 to 65 percent of the incubated ^125 I. The purified radioactive iodinated compound was stored at 0° to 4° C. in a benzene-methanol mixture (95:5).
# [3] = test system: antisera against bovine serum albumin complexes with E2-17-hemisuccinate, E2-6-carboxymethyloxime and E2-3-carboxymethyl ether; assay: Radioimmunoassay with antisteroid antisera; assay type: binding, rabbits; settings: three antisera, various dilutions
# Protocol: Antisteroid antisera were produced in rabbits immunized with steroid-bovineserum albumin conjugates.
# Varying amounts of E2 dissolved in methanol were added to test tubes and evaporated to dryness. The residues were dissolved in 100 μl of antiserum that had been diluted in 0.1M phosphate, pH 7.0/0.015M sodium azide/0.15M NaCl/0.1% gelatin (PBS buffer). […] Upon completion of the incubation, 100 μl of 0.5% gelatin in PBS buffer was added, followed by 1 ml of PBS buffer containing 2.5 mg of dextran-coated charcoal. The mixture was agitated in a vortex mixer and, after 10 minutes at 4° C., it was centrifuged at 5000×g for 10 minutes at 4° C. Aliquots (0.9 ml) were assayed for radioactivity.
# The data also indicate that very sensitive radioimmunoassays could be developed with all three antisera.
# [4] = molecular target: T1, estrogen receptor of human mammary tumors (Homo sapiens, UniProt P03372); assay: Estrogen receptor assay in human mammary tumor cytosol; assay type: binding; settings: 1.5 mg/ml protein
# T1 construct: 124 and 126
# T1 sequence (P03372 1-595): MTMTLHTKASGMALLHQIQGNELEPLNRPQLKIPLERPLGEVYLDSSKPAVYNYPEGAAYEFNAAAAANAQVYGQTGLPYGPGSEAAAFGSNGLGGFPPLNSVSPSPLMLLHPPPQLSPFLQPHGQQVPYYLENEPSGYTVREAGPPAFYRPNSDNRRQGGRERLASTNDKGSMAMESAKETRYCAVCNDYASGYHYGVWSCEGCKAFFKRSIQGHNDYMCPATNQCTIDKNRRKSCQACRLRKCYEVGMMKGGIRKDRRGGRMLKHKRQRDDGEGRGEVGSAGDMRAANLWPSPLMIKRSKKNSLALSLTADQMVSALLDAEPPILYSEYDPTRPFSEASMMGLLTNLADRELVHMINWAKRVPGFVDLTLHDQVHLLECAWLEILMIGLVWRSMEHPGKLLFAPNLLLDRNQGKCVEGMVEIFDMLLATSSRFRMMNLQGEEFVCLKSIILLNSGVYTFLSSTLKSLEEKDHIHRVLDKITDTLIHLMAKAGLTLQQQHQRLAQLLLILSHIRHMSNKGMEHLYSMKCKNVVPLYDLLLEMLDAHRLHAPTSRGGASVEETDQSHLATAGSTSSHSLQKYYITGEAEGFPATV
# Protocol: Extrogen receptor human mammary tumors were kept frozen in dry ice in a pulverized form. […] The final concentration of cytosolic protein used in the assay was 1.5 mg/ml.
# A pool of two different estrogen receptor-positive mammary tumors was studied.
# [5] = test system: Rat Uterine Receptor; assay: Tissue radioactivity 6 hours after injection into castrated female rats with and without DES; assay type: in vivo, Sprague-Dawley rats
# Protocol: (§1) To deterine whether 16α-[^125 I]iodoestradiol would be recognized by estrogen-responsive tissues, it was injected into castrated female rats with and without diethylstilbestrol (DES); after 6 hours the concentration of radioactivity in the uterus was compared to that in several other tissues.
# (§2) Female Sprague-Dawley rats (200 to 250 g) were castrated 48 hours before subcutaneous injection of ^125 I-labeled estradiol (1×10^6 count/min) dissolved in 10 μl of ethanol and 0.2 ml of saline. Twenty minutes before the administration of the iodinated estradiol, one group of rats (N=6) were injected with 5 μg of DES dissolved first in 50 μl of ethanol and then in 0.5 ml of saline. Another group of castrated rats (N=6) were injected with 0.5 ml of 10 percent ethanol in saline before receiving the radioactive steroid. The rats were killed 6 hours later and small pieces of the tissues were weighed and counted. All values are means ± standard deviations. To determine ether extractable radioactivity, the uterus, liver, and thyroid were homogenized in methanol and filtered. The filtrate was evaporated and the resulting residue was partitioned between ether and 0.1N NaHCO3. The ethereal solution was evaporated and counted and the results are tabulated below in Table I.
# (§3) Several micrograms of 16α-iodoestradiol were added to the ether extract of the uterus and the mixture was submitted to high-pressure liquid chromatography. High pressure liquid chromatography was performed on a 250 by 4.6 mm Lichrosorb Diol column (merck) with methylene chloride at a flow rate of 1 ml/min. In this system 16α-iodoestradiol is eluted in 12 minutes and 16β-bromoestradiol in 8 minutes. […] The radioactivity in the thyroid gland, approximately 2000 count/min, is probably due to the uptake of free iodide arising from the metabolism of ^125 I-labeled estradiol in vivo and is equivalent to only 0.2 percent of the injected dose.
# [6] = as above; assay type: in vivo, Sprague-Dawley rats
# Protocol: as §1, §2, §3
compound,measurement,setting,value
"C[C@]12CC[C@@H]3c4ccc(O)cc4CC[C@H]3[C@@H]1C[C@@H]([125I])[C@@H]2O [^125 I-E2, 16α-[^125 I]iodoestra-1,3,5(10)-triene-3,17β-diol]",binding to testosterone-estradiol binding globulin,[1],does not bind
same,decomposition on storage,[2]; weeks of storage at 0° to 4° C. in benzene-methanol (95:5),no signs of decomposition
same,decomposition on storage,[2]; weeks of storage of 4° C.,little sign of decomposition
same,binding of tracer to antisera,[3],bound to all three antisera
same,receptor concentration found with the ligand,[4]; mammary tumor pool no. 124,24 fmol/mg of protein
same,receptor concentration found with the ligand,[4]; mammary tumor pool no. 126,72 fmol/mg
same,nature of the radioactive material in the uterus,[5]; HPLC of ether extract of uterus with 16α-iodoestradiol carrier,unmetabolized
same,"Radioactivity, With DES","[5]; Heart, 5 μg DES, 6 hours",26 ± 7 count/min per 100 mg of tissue
same,"Radioactivity, Without DES","[5]; Heart, 6 hours",23 ± 5 count/min per 100 mg of tissue
same,"Radioactivity, With DES","[5]; Kidney, 5 μg DES, 6 hours",75 ± 20 count/min per 100 mg of tissue
same,"Radioactivity, Without DES","[5]; Kidney, 6 hours",73 ± 33 count/min per 100 mg of tissue
same,"Radioactivity, With DES","[5]; Liver, 5 μg DES, 6 hours",425 ± 105 count/min per 100 mg of tissue
same,"Radioactivity, Without DES","[5]; Liver, 6 hours",446 ± 184 count/min per 100 mg of tissue
same,"Radioactivity, With DES","[5]; Lung, 5 μg DES, 6 hours",56 ± 11 count/min per 100 mg of tissue
same,"Radioactivity, Without DES","[5]; Lung, 6 hours",47 ± 23 count/min per 100 mg of tissue
same,"Radioactivity, With DES","[5]; Muscle, 5 μg DES, 6 hours",18 ± 12 count/min per 100 mg of tissue
same,"Radioactivity, Without DES","[5]; Muscle, 6 hours",33 ± 23 count/min per 100 mg of tissue
same,"Radioactivity, With DES","[5]; Serum, 5 μg DES, 6 hours",68 ± 6 count/min per 100 mg of tissue
same,"Radioactivity, Without DES","[5]; Serum, 6 hours",69 ± 11 count/min per 100 mg of tissue
same,"Radioactivity, With DES","[5]; Thyroid, entire organ, 5 μg DES, 6 hours",2287 ± 805 count/min
same,"Radioactivity, Without DES","[5]; Thyroid, entire organ, 6 hours",1839 ± 802 count/min
same,"Radioactivity, With DES","[5]; Uterus, 5 μg DES 20 min before, 6 hours",73 ± 8 count/min per 100 mg of tissue
same,"Radioactivity, Without DES","[5]; Uterus, castrated rats, 6 hours after s.c. injection",313 ± 150 count/min per 100 mg of tissue
same,radioactivity in the thyroid gland as share of injected dose,[5]; thyroid gland,0.2% of the injected dose
same,radioactivity in the thyroid gland,"[5]; thyroid gland, probably free iodide",approximately 2000 count/min
same,Ether-extractable radioactivity,[6]; Liver,10-15%
same,Ether-extractable radioactivity,[6]; Thyroid,0-1%
same,Ether-extractable radioactivity,[6]; Uterus,> 90%
